Test results published in article PMC5729930, “Bitopic fluorescent antagonists of the A2A adenosine receptor based on pyrazolo[4,3-e][1,2,4]triazolo[1,5-c]pyrimidin-5-amine functionalized congeners” (MedChemComm, 2017).

Assays:
hA2AAR = biological target: T1, hA2AAR (Homo sapiens, UniProt P29274); assay: Flow cytometry saturation binding of fluorescent antagonists in whole cells; assay type: cell-based; details: hA2AAR-expressing HEK-293 cells; for nonspecific binding: result in words
T1 construct: expressed in transfected cells
T1 sequence (P29274 whole entry): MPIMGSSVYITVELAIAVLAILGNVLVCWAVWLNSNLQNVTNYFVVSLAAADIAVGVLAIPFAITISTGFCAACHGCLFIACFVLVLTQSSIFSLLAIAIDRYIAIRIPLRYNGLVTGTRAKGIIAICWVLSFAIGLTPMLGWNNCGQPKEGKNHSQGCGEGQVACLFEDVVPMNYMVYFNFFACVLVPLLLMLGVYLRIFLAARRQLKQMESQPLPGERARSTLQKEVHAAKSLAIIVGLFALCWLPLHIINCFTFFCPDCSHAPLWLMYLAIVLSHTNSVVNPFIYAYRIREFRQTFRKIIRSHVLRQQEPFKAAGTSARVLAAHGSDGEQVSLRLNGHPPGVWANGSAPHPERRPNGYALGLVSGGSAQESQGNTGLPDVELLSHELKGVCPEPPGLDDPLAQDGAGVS
Method: Compounds 11 and 12 were tested as fluorescent tracers for flow cytometry of HEK-293 cells expressing the hA2AAR (Fig. 4A). […] Thus, 11 tended to bind non-specifically to hydrophobic membranes by undetermined mechanisms. […]. For inhibition studies, the cells were co-incubated for one hour prior to flow cytometry with fluorescent probe 12 (10 nM) and a test antagonist. […]
Fig. 4 Saturation of fluorescent antagonists 11 (A) and 12 (B) in hA2AAR-expressing HEK-293 cells measured using flow cytometry following a 1 h incubation at 37 °C. Non-specific binding was determined with 10 μM 3. Results are expressed as the mean ± SEM. The Kd value calculated from Fig. 4B is listed in the text.
Cell culture for membrane binding assays and flow cytometry: HEK-293 cells stably expressing the A2AAR were grown in Dulbecco’s Modified Eagle’s Medium (DMEM) with 10% FBS, 100 units/ml penicillin, […] streptomycin, 2 mM L-glutamine and 0.500 mg/mL G418 Sulfate (Geneticin). Cells were maintained in a humidified atmosphere and sterile incubation conditions held at 37 °C and 5% CO2 (g). A day prior to the experiment, cells were plated on a 96 -well clear and flat bottom plate at 80 -90% confluency in 100 µL of medium. […]
Fluorescent binding studies: All binding studies were done in triplicate. For saturation binding studies, cells were treated with 50 µL of 11 (MRS 7396) or 12 (MRS 7416), to achieve a final concentration from 0.19 to 400 nM, and 50 µL of Tris-HCl buffer containing 10 mM MgCl2. Non-specific binding was determined with SCH442416 3 (final concentration of 10 µM, in Tris-HCl buffer). For displacement experiments, cells were incubated simultaneously with 50 µL of 40 nM 11 or 12 (final concentration 10 nM) and 50 µL of the non-labeled displacing ligand at increasing concentrations. The total binding was measured in the absence of a displacing ligand, and non-specific binding was determined with 10 µM 3.
After 1 h at 37 °C (for both the saturation and displacement experiments), the medium was removed and the cells were carefully washed two times with 150 µL of ice-cold PBS (not containing Mg+2 or Ca+2).
The cells were treated with 40 µL of Corning Cellstripper (Mediatech, Manassas, VA) per well and then incubated at 37 °C for 10 min. To each well was subsequently added 160 µL of PBS (not containing Mg+2 or Ca+2), and the cell fluorescence was analyzed with a BD FACSCalibur flow cytometer (Becton, Dickinson and Co., Franklin Lakes, NJ) with excitation at 635 nm (red diode laser, for 11) or 488 nm (blue laser, for 12) in conjunction with the software from BD Bioscience PlateManager and CellQuest. […]
2. Bradford, M. M. A rapid and sensitive method for the quantitation of microgram quantities of protein utilizing the principle of protein -dye binding. […]

A1AR = biological target: T2, A1AR (Homo sapiens, UniProt P30542); assay: Competition radioligand binding, hA1AR ([3H]DPCPX); details: [3H]DPCPX 0.5 nM; for Ki: HEK-293 membranes, 1 h 25 °C, mean ± SEM, read-out: Affinity, Ki, A1
T2 construct: expressed in transfected cells
T2 sequence (P30542 1-326): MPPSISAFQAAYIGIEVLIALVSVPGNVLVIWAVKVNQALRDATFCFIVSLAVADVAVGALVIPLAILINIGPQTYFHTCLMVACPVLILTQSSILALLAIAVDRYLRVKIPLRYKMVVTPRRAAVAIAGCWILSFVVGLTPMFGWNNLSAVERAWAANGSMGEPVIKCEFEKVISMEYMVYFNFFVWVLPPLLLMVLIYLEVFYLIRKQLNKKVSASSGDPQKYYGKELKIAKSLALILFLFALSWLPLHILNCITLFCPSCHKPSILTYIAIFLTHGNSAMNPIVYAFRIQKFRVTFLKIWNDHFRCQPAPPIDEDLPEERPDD
Method: The affinity of the amine congeners and other antagonists was measured using standard radioligand binding assays for hA1, A2A and A3ARs (Table 1).[1],[13],[14],[22] Membranes of human embryonic kidney (HEK)293 cells expressing the AR of interest were used in the assay. Primary amine congeners 6a–6d containing spacers of 2–5 methylenes were similar in terms of hA2AAR affinity (Ki 6–9 nM), with the butylamino congener 6c displaying the highest A2AAR selectivity in the series. The affinity of this compound for the hA3AR was determined to be 6.0 μM, with only slightly higher hA1AR affinity. Homologation to 6 methylenes in compound 6e lowered A2AAR affinity. […] No dependence of the affinity on the chain length was evident when comparing AlexaFluor647 conjugates 9 and 10. […]
Radioligand binding assays: Cell membranes were prepared as reported.1
Binding assays were carried out using standard radioligands and membrane preparations from HEK-293 cells stably expressing the human (h) A1, A2A or A3ARs or mouse (m) A1, A2A or A3ARs. The radioligands used were: A1AR, [3H]8-cyclopentyl-1,3-dipropylxanthine 14; A2AAR, [3H]2; A3AR, [125I]N6-(4-amino-3-iodobenzyl)adenosine-5′-N-methyluronamide 16. The radioligand for archival A2AAR affinity data presented in Table 1 was [3H]2-[p-(2-carboxyethyl)phenyl-ethylamino]-5′-N-ethylcarboxamidoadenosine 15. Nonspecific binding was determined using 10 µM 8-[4-[[[[(2-aminoethyl)amino]carbonyl]methyl]oxy]phenyl]-1,3-dipropylxanthine 17 (A1AR and A2AAR) or 10 µM adenosine-5′-N-ethyluronamide 18 (A3AR). HEK-293 cells expressing recombinant mA1, A2A, or A3AR […]
Protein was determined as reported.2 In all the binding experiments, IC50 values and Ki values were calculated using GraphPad Prism software (San Diego, CA). Values are expressed as mean±SEM. […]
Med. Chem. Comm., 2015, 6:555-563.
2. Bradford, M. M. A rapid and sensitive method for the quantitation of microgram quantities of protein utilizing the principle of protein -dye binding. Anal. Biochem. 1976, 72, 248-254.

Row | specific binding, % of the total (hA2AAR; 1 h 37 °C, nonspecific with 10 μM 3) [%] | nonspecific binding (hA2AAR) | inhibition at 10 µM (A1AR; percent inhibition at 10 μM) [%] | Kd (hA2AAR; 1 h 37 °C) [nM] | Ki (A1AR) [nM] | Structure (SMILES)
1 | < 25 | high nonspecific binding | 40 | – | – | Nc1nc2c(cnn2CCCc2ccc(OCC(=O)NCCCCNC(=O)CCCCCNC(=O)COc3ccc(/C=C/C4=[N+]5C(=Cc6ccc(-c7cccs7)n6[B-]5(F)F)C=C4)cc3)cc2)c2nc(-c3ccco3)nn12 [compound 11]
2 | – | low nonspecific binding | – | 45.4 | 1680 ± 470 | CCN(CC)CC.CCN(CC)CC.N=c1ccc2c(-c3ccc(C(=O)NCCCCNC(=O)COc4ccc(CCCn5ncc6c5nc(N)n5nc(-c7ccco7)nc65)cc4)cc3C(=O)O)c3ccc(N)c(S(=O)(=O)O)c3oc-2c1S(=O)(=O)O [compound 12]
3 | – | – | – | – | 4190 ± 750 | N.Nc1nc2c(cnn2CCCc2ccc(OCc3ccc(S(=O)(=O)O)cc3)cc2)c2nc(-c3ccco3)nn12 [compound 13]
